# Paper PMC10889512, “Pyrimidine Schiff Bases: Synthesis, Structural Characterization and Recent Studies on Biological Activities” (International Journal of Molecular Sciences, 2024)
# System: AGS cells
# Test: Flow cytometry annexin V/PI staining, cell death pathway, AGS
# Type: cell-based, human
# Details: at IC50, 6, 18 and 24 h
# Protocol: To confirm the cell death pathway, another approach to flow cytometry was used. […] Annexin V is a specific PS-binding protein, and thus it is used to detect apoptotic cells. Very few events could be observed in the first and the second quadrant, which represent apoptotic cells. Most events occurred in the third and the fourth quadrant, where unstained and necrotic cells were located. The 24 h measurements after both flow cytometry approaches were consistent with each other. […] Two approaches for flow cytometry were used—FDA/PI staining to determine cell viability and annexin V/PI staining for cell death pathway determination. For cell death pathway determination, cells were plated in 6-well plates at a density of 3 × 10^5 cells/well. […] After 6, 18, and 24 h incubation, adhered and floating cells were harvested, centrifuged at 1600 rpm, and washed with PBS. Next, the cells were washed with 1× annexin-binding buffer, and after centrifugation, cells from each test set were suspended in 100 µL of 1× annexin-binding buffer. To each tube, 5 µL of Alexa Fluor 488-annexin V stain was added, and the cells were incubated in the dark. After 15 min incubation, the cells were centrifuged at 1600 rpm to remove the dye, then suspended in 1 mL of 1× binding buffer and kept on ice. Prior to analysis, cells were stained for 2 min with 1 µM PI. […]
compound,measurement,value
"Cc1nc(-c2ccccc2)nc(Nc2ccc(F)cc2)c1C=Nc1cccc(Cl)c1 [compound 4b, 5-{[(3-chlorophenyl)imino]methyl}-N-(4-fluorophenyl)-6-methyl-2-phenylpyrimidin-4-amine]",cell death pathway,irreversible cell injury and necrosis
